Reference: US20240270762A1, “PENICILLIN-BINDING PROTEIN INHIBITORS” (priority 2021, published 2024)
pEC50, pIC50: −log10 of the molar value. Values after ≈ are worked out from the molar mass of the structure shown.

Experiments:
[1] = molecular target: T1, PBP3 from Escherichia coli (K-12) (Escherichia coli, UniProt P0AD68); test: Bocillin-FL fluorescence polarization competition binding, E. coli PBP3
T1 construct: made in house
How it was run: (§1)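 Purified PBP was preincubated with inhibitor (E. coli PBP3 1.5 μM, 30 min; P. aeruginosa PBP3 0.75 μM, A. baumannii PBP3 0.2 μM and PBP1a 1 μM, 15 min), then Bocillin-FL (0.1 μM; 0.05 μM for PBP1a) added and FP read up to 60 min. EC50 = 50% loss of bound probe.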

[2] = molecular target: T2, PBP3 from Pseudomonas aeruginosa (PAO1) (Pseudomonas aeruginosa, UniProt G3XD46); test: Bocillin-FL fluorescence polarization competition binding, P. aeruginosa PBP3; settings: Binding affinity to P. aeruginosa PBP3; fluorescence polarization competition binding assay using Bocillin-FL; read-out: P. aeruginosa PBP3 Potency
T2 construct: made in house
T2 sequence (G3XD46 whole entry): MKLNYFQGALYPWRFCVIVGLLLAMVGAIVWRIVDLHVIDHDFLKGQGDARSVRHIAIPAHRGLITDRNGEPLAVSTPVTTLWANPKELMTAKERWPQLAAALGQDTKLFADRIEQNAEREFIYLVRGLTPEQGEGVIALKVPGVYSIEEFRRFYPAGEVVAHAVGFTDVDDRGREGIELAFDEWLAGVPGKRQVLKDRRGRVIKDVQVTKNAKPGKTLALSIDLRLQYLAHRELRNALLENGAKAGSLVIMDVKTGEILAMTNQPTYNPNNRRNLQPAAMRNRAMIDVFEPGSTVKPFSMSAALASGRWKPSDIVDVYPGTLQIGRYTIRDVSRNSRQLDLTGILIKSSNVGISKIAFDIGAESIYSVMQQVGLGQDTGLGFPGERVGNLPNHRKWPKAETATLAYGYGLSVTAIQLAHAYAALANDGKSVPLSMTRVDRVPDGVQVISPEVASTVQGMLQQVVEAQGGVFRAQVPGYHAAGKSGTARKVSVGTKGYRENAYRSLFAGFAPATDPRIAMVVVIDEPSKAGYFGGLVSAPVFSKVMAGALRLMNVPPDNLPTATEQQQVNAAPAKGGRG
How it was run: as §1

P. aeruginosa CDC-0054 = test: microbe, parasite or virus in culture; assay type: cell-based; settings: Pseudomonas aeruginosa, CDC0054, read-out: Minimum inhibitory concentration, P. aeruginosa CDC-0054
P. aeruginosa CDC-0095 = test: microbe, parasite or virus in culture; assay type: cell-based; settings: Pseudomonas aeruginosa, CDC0095, read-out: Minimum inhibitory concentration, P. aeruginosa CDC-0095
A. baumannii CDC-0033 = test: microbe, parasite or virus in culture; assay type: cell-based; settings: Acinetobacter baumannii, CDC0033, read-out: MIC, A. baumannii CDC-0033
[3] = test system: N. gonorrhoeae ATCC 49226; test: Liquid broth MIC in Fastidious broth; settings: Neisseria gonorrhoeae, ATCC49226, read-out: Minimum Inhibitory Concentration, ATCC 49226
N. gonorrhoeae FA1090 = test: Liquid broth MIC in Fastidious broth; settings: Neisseria gonorrhoeae, FA1090, read-out: Minimum Inhibitory Concentration, FA 1090
N. gonorrhoeae MS11 = test: Liquid broth MIC in Fastidious broth; settings: Neisseria gonorrhoeae, MS11, read-out: Minimum Inhibitory Concentration, MS11
N. gonorrhoeae WHO G = test: Liquid broth MIC in Fastidious broth; settings: Neisseria gonorrhoeae, read-out: Minimum Inhibitory Concentration, WHO G
N. gonorrhoeae WHO M = test: Liquid broth MIC in Fastidious broth; settings: Neisseria gonorrhoeae, read-out: Minimum Inhibitory Concentration, WHO M
N. gonorrhoeae WHO K = test: Liquid broth MIC in Fastidious broth; settings: Neisseria gonorrhoeae, read-out: Minimum Inhibitory Concentration, WHO K
N. gonorrhoeae WHO Z = test: Liquid broth MIC in Fastidious broth; settings: Neisseria gonorrhoeae, read-out: Minimum Inhibitory Concentration, WHO Z

T1 sequence (P0AD68 1-577): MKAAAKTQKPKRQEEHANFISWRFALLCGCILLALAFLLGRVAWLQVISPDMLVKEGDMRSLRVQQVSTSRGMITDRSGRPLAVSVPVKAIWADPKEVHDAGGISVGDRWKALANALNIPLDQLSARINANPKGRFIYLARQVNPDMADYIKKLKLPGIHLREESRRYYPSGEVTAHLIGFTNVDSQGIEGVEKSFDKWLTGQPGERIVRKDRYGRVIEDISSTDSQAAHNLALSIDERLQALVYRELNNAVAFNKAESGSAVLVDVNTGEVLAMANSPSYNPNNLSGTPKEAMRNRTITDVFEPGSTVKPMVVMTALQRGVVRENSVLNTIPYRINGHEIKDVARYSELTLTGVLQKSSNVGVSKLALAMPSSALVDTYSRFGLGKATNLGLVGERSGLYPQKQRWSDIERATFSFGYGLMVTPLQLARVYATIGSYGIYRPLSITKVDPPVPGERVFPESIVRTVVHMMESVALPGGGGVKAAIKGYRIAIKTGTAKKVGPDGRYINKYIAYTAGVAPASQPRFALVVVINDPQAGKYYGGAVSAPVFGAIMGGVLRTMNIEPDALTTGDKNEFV

`O=C(NCCS(=O)(=O)N1CCN(C(=O)N[C@H](C(=O)N[C@H]2Cc3ccc(F)c(C(=O)O)c3OB2O)c2cc(F)c(O)c(O)c2Cl)C1=O)c1nccs1` [Example 263, (R)-3-((S)-2-(2-chloro-5-fluoro-3,4-dihydroxyphenyl)-2-(2-oxo-3-((2-(thiazole-2-carboxamido)ethyl)sulfonyl)imidazolidine-1-carboxamido)acetamido)-7-fluoro-2-hydroxy-3,4-dihydro-2H-benzo[e][1,2]oxaborinine-8-carboxylic acid] was tested, and the pEC50 [1] was < 3.60, the pIC50 [2] was 4.30 to 5.00 and the MIC (P. aeruginosa CDC-0054) was 8 to 16 µg/mL (≈ 10.4 to 20.7 µM). For the same compound, the MIC (P. aeruginosa CDC-0095) was > 128 µg/mL, the MIC (A. baumannii CDC-0033) was 32 to 64 µg/mL (≈ 41.4 to 82.8 µM) and the MIC [3] was > 64 µg/mL. The MIC (N. gonorrhoeae FA1090) was > 64 µg/mL, the MIC (N. gonorrhoeae MS11) was > 64 µg/mL and the MIC (N. gonorrhoeae WHO G) was > 64 µg/mL. The MIC (N. gonorrhoeae WHO M) was > 64 µg/mL, the MIC (N. gonorrhoeae WHO K) was > 64 µg/mL and the MIC (N. gonorrhoeae WHO Z) was > 64 µg/mL.
